According to patent publication US10905691B2, “Use of triazolo(4,5-d)pyrimidine derivatives for prevention and treatment of bacterial infection” (Universite de Liege, priority 2016, dated 2021):
Values after ≈ are worked out from the molar mass of the structure shown.

Legend:
[1] = tested on: S. aureus ATCC 6538; experiment: MIC determination (EUCAST, Mueller-Hinton broth); format: cell-based; details: Staphylococcus aureus, ATCC6538
Experimental: Further experiments were conducted using different strains of S. aureus, as clinically relevant Gram-positive bacterial strains: ATCC 25904, ATCC 6538, methilcillin-resistant S. aureus (MRSA) ATCC BAA-1556, Glycopeptide intermediate-resistant (GISA) S. aureus Mu-50 (ATCC 700695) in order to determine the Minimal Inhibitory Concentration (MIC) which is the minimal concentration required to prevent bacterial growth; the Minimal Bactericidal Concentration (MBC) which determines the lowest concentration at which an antimicrobial agent kill a particular microorganism and a Minimum Duration for killing 99.9% bacteria (MDK99.9) which is a tolerance metric according to the EUCAST.
MIC determination: A single colony selected from the different strains of S. aureus is resuspended and cultured in the appropriate medium overnight (O/N) in aerobic conditions (37° C. with 220 rpm shaking), next day a 1:100 inoculum in Mueller-Hinton broth (MHB) was incubated in aerobic conditions for 3 hr (OD=0.08-0.1) and an inoculum of 1:300 dilution, corresponding to 3×10^5 CFU/ml, was incubated in presence or absence of different concentrations of Triafluocyl in 1% DMSO. After O/N growth the OD of each culture was measured at 600 nm in a spectrophotometer (OD600). […]

[2] = tested on: S. epidermidis mature biofilm; experiment: Mature biofilm (24-hour) treatment, LIVE/DEAD BacLight staining; format: cell-based, Staphylococcus epidermidis; details: 24 hr treatment of 24-hour biofilm
Excerpt: In another experiment we let adhere 0.5×10^8 CFU/ml S. epidermidis cells for 4 hr and let the biofilm form for additional 24 hr in presence of 0.25% glucose, at this point we treated the biofilm with several concentrations of Triafluocyl for 24 hr in TSB with 0.25% glucose and determined the viable count (FIG. 7) as well as the percentage of live cells using the BacLight bacterial viability kit (Molecular Probes).
In the same experiment we also determined the percentage of live and dead bacteria. To do so we followed the procedure of the kit LIVE/DEAD from Molecular Probes. Briefly, the biofilm was resuspended in a solution of 0.9% NaCl and cells were stained with a mixture of SYTO9 (green fluorescence) and propidium iodide (PI) (red fluorescence) for 15 min in the dark. Stained cells were transferred in a 96-well plate and fluorescence was measured using the Enspire Spectrophotometer with excitation wavelength of 470 nm and emission spectra in the range of 490-700 nm. SYTO9 dye (green fluorescence 500-520 nm) penetrates all the cells (dead and live) and binds to DNA, while PI (red fluorescence in the range 610-630 nm) enters only in dead cells with a damaged cell membrane. When PI and SYTO9 are in the same cell the green fluorescence intensity decreases. […]

[3] = tested on: S. agalactiae (ATCC 12386); experiment: MBC and MDK99.9 determination (CFU counting); format: cell-based, Streptococcus agalactiae
Experimental: Further experiments were conducted using S. agalactiae (ATCC 12386), as clinically relevant Gram-positive bacterial strains in order to determine the Minimal Inhibitory Concentration (MIC) which is the minimal concentration required to prevent bacterial growth; the Minimal Bactericidal Concentration (MBC) which determines the lowest concentration at which an antimicrobial agent kill a particular microorganism and a Minimum Duration for killing 99.9% bacteria (MDK99.9) which is a tolerance metric according to the EUCAST.
MBC and MDK99.9 determination: A single colony selected from S. agalactiae (ATCC 12386) is resuspended and cultured in the appropriate medium (TSB, or BHI) overnight (O/N) in aerobic conditions (37° C. with 220 rpm shaking), next day a 1:100 inoculum in the appropriate medium was incubated in aerobic conditions for 2 h. The culture is then challenged with triafluocyl at MIC concentration or higher concentrations. Bacterial growth was measured after different time intervals by counting the colony-forming units after plating appropriate culture dilutions on BHI agar plates. […] And the real time needed is defined as the MDK99.9. MBC for Triafluocyl against S. agalactiae (ATCC 12386) was 40 μg/ml. MDK99.9 for Triafluocyl against S. agalactiae (ATCC 12386) was 1 hour.

[4] = tested on: E. faecalis (ATCC 29212); experiment: Growth kinetics in logarithmic phase (OD600 and viable count); format: cell-based, Enterococcus faecalis; details: 30-120 min, FIG. 3
Experimental: E. faecalis (ATCC 29212) was grown overnight in Brain heart infusion (BHI) medium, diluted 1:100 in fresh BHI, and incubated aerobically at 37° C. until bacteria growth reached a logarithmic phase (OD600=0.25-0.3).
Increasing concentrations of Triafluocyl (Cayman Chemical, Item No. 15425) or DMSO as vehicle was then added in 5 ml of bacteria suspensions. Bacterial growth was measured after different time intervals (30-120 min) by spectrophotometry (OD600) and by counting the colony-forming units after plating appropriate culture dilutions on BHI agar plates.
In FIG. 3 kinetics of E. faecalis growth in the presence of an increasing concentrations (5 μg/ml to 40 μg/ml) of Triafluocyl were measured by turbidity measurement (upper graph), and viable count (lower graph). Data represent medians±range (n=3).

CCCSc1nc(N[C@@H]2C[C@H]2c2ccc(F)c(F)c2)c2nnn([C@@H]3C[C@H](OCCO)[C@@H](O)[C@H]3O)c2n1 [Triafluocyl, (1S,2S,3R,5S)-3-[7-[(1R,2S)-2-(3,4-difluorophenyl)cyclopropylamino]-5-(propylthio)-3H-[1,2,3]-triazolo[4,5-d]pyrimidin-3-yl]-5-(2-hydroxyethoxy)-1,2-cyclopentanediol]
MIC [1]: 20 µg/mL (≈ 38.3 µM) | percentage of live bacteria in the biofilm ([2]; 20 μg/ml): 80% | percentage of live bacteria in the biofilm ([2]; 50 μg/ml): 30% | MDK 99.9 Time (h) needed to kill 99.9% of the started inoculum [3]: 1 h | MBC ([3]; Streptococcus agalactiae, ATCC12386, cut-off 99.9% reduction in CFU): 40 µg/mL (≈ 76.5 µM) | effect on bacterial growth (turbidity and viable count) ([4]; 10 μg/ml): able to inhibit bacterial growth | effect on bacterial growth (turbidity and viable count) ([4]; 20 μg/ml): potent bactericidal effects | effect on bacterial growth (turbidity and viable count) ([4]; 40 μg/ml): potent bactericidal effects
